Laboratory results published in publication PMC7714403 (JCI Insight, 2020).
Like-named read-outs stand apart in the source and are kept apart here.

Assays:
Assay in all cases: KiNativ, MOLM13 live cells
Format in all cases: cell-based
CDC2 = CDC2 (Homo sapiens, UniProt P06493); details: MOLM-13, 2 h, 100 nM
Procedure: (§1) Samples were analyzed by KiNativ in situ kinase profiling by ActivX Biosciences.

CDK5 = CDK5 (Homo sapiens, UniProt Q00535); details: MOLM-13, 2 h, 100 nM
Procedure: as §1

CaMK2d = CaMK2d (Homo sapiens, UniProt Q13557); details: MOLM-13; 100 nM, 2 hours; Lys1; read-out: Inhibition vs DMSO
Procedure: as §1

CaMK2g = CaMK2g (Homo sapiens, UniProt Q13555); details: MOLM-13; 100 nM, 2 hours; Lys1; read-out: Inhibition vs DMSO
Procedure: as §1

FER = FER (Homo sapiens, UniProt P16591); details: MOLM-13, 2 h, 100 nM
Procedure: as §1

GSK3B = GSK3B (Homo sapiens, UniProt P49841); details: MOLM-13; 100 nM, 2 hours; Lys2; read-out: Inhibition vs DMSO
Procedure: as §1

IRAK3 = target: T1, IRAK3 (Homo sapiens, UniProt Q9Y616); details: MOLM-13; 100 nM, 2 hours; Lys1; read-out: Inhibition vs DMSO
T1 sequence (Q9Y616 1-596): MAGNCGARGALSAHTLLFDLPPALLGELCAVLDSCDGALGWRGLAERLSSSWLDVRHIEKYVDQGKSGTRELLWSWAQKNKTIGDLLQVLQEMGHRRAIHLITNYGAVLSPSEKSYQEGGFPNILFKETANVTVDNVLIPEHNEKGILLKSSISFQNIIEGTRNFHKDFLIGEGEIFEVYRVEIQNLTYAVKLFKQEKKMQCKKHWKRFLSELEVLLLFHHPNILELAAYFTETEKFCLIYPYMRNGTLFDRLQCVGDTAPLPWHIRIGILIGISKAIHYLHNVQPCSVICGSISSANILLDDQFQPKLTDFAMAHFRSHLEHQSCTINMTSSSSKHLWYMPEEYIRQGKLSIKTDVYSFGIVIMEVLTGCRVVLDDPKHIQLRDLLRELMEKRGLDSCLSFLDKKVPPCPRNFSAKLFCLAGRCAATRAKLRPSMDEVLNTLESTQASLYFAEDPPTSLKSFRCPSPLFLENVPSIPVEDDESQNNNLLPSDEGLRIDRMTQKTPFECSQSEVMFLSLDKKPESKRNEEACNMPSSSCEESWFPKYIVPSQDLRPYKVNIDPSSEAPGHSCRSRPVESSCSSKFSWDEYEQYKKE
Procedure: as §1

LOK = LOK (Homo sapiens, UniProt O94804); details: 100 nM, 2 hours
Procedure: as §1

MAP2K3 = target: T2, MAP2K3 (Homo sapiens, UniProt P46734); details: MOLM-13, 2 h, 100 nM
T2 sequence (P46734 1-347): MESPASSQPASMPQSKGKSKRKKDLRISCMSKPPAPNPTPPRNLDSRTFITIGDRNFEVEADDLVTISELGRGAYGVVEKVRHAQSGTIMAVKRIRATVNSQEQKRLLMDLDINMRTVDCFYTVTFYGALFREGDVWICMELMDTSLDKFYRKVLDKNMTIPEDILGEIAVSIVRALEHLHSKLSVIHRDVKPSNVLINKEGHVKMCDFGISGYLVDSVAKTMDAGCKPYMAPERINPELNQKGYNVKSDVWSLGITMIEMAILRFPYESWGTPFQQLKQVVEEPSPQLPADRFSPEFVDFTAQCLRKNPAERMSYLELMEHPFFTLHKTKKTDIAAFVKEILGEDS
Procedure: as §1

MAP3K3 = MAP3K3 (Homo sapiens, UniProt Q99759); details: MOLM-13; 100 nM, 2 hours; Lys1; read-out: Inhibition vs DMSO
Procedure: as §1

NEK4 = NEK4 (Homo sapiens, UniProt P51957); details: MOLM-13; 100 nM, 2 hours; Lys2; read-out: Inhibition vs DMSO
Procedure: as §1

PEK = PEK (Homo sapiens, UniProt Q9NZJ5); details: 100 nM, 2 hours, Lys2, read-out: Inhibition vs DMSO
Procedure: as §1

RAF1 = RAF1 (Homo sapiens, UniProt P04049); details: MOLM-13; 100 nM, 2 hours; Lys2; read-out: Inhibition vs DMSO
Procedure: as §1

SMG1 = SMG1 (Homo sapiens, UniProt Q96Q15); details: 100 nM, 2 hours, ATP
Procedure: as §1

[1] = Lys1, read-out: Inhibition vs DMSO
[2] = Lys2, read-out: Inhibition vs DMSO
[3] = Activation Loop, read-out: Inhibition vs DMSO

Sequence of CDC2 (P06493 whole entry): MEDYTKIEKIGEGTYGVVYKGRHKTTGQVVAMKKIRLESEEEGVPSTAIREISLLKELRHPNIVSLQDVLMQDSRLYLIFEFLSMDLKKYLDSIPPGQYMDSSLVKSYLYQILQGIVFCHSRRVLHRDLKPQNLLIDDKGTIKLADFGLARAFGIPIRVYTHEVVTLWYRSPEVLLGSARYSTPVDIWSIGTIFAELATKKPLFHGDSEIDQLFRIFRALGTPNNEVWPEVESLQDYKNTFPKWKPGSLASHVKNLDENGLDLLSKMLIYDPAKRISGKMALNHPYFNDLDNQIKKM
Sequence of LOK (O94804 whole entry): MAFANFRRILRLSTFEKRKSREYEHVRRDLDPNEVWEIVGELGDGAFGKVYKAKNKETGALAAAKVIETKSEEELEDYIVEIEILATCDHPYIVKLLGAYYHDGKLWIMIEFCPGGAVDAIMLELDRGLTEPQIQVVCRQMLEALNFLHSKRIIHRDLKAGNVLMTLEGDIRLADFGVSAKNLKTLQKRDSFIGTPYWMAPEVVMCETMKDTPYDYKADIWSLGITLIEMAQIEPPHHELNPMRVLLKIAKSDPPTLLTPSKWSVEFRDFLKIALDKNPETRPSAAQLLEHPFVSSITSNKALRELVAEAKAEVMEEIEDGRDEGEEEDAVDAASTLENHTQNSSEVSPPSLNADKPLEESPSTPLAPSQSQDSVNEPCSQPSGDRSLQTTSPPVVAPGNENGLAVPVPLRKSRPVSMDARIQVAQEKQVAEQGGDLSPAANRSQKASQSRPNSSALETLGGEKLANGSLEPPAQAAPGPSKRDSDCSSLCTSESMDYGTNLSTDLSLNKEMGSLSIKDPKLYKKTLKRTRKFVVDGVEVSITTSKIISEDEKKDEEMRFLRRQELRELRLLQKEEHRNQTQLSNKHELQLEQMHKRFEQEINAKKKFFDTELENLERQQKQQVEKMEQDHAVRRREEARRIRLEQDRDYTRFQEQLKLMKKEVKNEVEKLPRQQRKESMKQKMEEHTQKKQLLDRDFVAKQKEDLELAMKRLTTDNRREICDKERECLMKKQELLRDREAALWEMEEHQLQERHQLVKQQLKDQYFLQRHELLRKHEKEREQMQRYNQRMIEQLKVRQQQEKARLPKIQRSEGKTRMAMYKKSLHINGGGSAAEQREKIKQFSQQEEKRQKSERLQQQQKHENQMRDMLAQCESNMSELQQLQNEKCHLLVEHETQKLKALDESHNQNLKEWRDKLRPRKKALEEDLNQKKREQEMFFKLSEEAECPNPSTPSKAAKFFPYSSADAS
Sequence of SMG1 (Q96Q15 whole entry): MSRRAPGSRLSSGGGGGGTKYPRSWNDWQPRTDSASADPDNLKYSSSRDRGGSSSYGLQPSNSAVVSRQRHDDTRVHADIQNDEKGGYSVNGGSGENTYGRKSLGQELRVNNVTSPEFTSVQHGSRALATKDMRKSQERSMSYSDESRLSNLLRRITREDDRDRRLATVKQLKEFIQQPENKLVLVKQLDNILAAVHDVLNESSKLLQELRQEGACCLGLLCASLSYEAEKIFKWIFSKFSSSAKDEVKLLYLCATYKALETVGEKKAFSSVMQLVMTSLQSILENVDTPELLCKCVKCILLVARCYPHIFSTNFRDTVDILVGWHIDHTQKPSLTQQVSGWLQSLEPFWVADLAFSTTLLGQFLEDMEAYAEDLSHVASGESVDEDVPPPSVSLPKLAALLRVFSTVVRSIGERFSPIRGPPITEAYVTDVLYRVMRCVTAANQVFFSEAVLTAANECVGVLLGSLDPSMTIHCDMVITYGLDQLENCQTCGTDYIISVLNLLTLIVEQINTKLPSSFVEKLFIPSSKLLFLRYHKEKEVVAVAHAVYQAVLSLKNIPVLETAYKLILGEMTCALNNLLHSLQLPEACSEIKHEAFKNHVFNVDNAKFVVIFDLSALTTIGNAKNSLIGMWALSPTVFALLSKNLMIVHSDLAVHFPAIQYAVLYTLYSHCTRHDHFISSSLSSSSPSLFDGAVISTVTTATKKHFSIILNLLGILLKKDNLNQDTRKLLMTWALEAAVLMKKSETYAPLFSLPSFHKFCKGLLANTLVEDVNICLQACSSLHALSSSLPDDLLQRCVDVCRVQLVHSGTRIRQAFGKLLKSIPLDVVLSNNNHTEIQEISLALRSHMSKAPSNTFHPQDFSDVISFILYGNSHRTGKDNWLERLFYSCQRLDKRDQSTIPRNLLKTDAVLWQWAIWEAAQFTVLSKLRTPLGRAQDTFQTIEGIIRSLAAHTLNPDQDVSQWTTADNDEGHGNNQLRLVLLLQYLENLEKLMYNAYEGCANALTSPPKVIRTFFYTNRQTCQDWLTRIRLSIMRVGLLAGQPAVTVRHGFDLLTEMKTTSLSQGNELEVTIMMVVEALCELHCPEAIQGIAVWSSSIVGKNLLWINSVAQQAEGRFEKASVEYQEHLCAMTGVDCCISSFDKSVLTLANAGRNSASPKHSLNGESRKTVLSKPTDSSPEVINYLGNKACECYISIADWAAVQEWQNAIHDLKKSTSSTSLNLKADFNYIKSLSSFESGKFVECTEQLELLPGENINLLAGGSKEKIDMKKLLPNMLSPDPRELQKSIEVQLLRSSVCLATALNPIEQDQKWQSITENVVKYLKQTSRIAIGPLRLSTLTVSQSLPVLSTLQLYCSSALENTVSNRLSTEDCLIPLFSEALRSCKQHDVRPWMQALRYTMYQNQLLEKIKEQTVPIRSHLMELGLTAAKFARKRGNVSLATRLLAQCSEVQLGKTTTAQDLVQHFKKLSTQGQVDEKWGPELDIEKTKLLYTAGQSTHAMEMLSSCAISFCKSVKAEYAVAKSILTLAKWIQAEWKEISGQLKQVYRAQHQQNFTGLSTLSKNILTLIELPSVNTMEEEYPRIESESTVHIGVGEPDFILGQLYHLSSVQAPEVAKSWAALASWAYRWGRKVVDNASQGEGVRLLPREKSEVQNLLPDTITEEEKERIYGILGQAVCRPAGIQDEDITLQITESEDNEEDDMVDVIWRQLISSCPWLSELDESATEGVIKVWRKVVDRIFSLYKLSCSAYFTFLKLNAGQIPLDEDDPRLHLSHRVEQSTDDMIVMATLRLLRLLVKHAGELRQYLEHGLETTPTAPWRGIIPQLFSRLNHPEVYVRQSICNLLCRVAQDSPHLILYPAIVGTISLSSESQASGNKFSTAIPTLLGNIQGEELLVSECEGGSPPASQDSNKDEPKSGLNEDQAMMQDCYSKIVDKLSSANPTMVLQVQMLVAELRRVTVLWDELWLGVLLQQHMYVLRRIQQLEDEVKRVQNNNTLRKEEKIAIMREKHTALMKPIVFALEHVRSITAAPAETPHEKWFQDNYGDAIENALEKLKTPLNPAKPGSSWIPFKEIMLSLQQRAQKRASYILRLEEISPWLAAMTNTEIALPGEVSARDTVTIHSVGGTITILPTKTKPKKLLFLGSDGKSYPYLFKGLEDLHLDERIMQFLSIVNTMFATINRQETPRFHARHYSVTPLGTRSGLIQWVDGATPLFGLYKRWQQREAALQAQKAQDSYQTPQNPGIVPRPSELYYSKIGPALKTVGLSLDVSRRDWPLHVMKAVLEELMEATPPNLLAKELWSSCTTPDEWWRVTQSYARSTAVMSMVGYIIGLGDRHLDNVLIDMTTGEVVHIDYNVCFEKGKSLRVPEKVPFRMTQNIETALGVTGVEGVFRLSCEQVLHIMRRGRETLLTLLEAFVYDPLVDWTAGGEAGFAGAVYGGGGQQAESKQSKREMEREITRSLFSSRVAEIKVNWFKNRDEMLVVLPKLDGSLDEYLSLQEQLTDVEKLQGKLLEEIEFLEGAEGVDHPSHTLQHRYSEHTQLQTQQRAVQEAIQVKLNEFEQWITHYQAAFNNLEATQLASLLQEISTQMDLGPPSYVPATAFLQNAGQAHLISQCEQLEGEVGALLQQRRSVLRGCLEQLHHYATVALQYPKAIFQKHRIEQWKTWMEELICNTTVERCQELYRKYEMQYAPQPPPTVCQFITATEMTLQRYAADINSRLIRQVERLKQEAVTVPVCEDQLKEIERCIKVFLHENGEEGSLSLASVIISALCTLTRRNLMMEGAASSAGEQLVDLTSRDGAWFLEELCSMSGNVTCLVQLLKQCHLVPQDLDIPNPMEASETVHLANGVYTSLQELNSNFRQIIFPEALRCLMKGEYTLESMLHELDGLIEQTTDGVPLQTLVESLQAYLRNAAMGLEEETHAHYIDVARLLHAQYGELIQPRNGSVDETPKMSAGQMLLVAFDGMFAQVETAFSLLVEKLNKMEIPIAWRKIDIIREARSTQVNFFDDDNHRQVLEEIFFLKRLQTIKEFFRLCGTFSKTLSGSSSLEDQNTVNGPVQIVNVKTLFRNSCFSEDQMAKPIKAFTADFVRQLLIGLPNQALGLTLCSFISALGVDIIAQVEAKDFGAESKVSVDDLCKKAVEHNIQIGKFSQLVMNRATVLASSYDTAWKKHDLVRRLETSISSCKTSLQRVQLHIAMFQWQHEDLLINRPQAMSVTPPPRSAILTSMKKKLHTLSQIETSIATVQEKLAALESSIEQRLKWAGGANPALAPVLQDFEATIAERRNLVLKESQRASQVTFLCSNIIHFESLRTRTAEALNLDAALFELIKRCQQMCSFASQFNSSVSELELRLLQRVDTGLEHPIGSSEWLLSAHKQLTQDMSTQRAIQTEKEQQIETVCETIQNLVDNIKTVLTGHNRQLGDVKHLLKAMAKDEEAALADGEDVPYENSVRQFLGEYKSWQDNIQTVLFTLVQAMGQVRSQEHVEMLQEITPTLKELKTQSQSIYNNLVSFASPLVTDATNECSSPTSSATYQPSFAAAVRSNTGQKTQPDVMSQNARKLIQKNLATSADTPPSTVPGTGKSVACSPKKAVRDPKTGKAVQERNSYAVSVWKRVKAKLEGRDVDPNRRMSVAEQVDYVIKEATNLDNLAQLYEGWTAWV

SMILES: CN1CCN(Cc2ccc(Nc3ncc(Cl)c(Nc4ccccc4S(=O)(=O)N(C)C)n3)cc2)CC1 [TP-0903]
- inhibition at 0.1 µM (CDC2; [1]): 2.5%
- inhibition at 0.1 µM (CDC2; [2]): 0.8%
- inhibition at 0.1 µM (CDC2; Protein Kinase Domain, read-out: Inhibition vs DMSO): -40.6%
- inhibition at 0.1 µM (CDK5; [1]): 31.9%
- inhibition at 0.1 µM (CDK5; [2]): 20.7%
- inhibition at 0.1 µM (CaMK2d): 7.5%
- inhibition at 0.1 µM (CaMK2g): 25.8%
- inhibition at 0.1 µM (FER; [3]): 43.4%
- inhibition at 0.1 µM (FER; [1]): 19.2%
- inhibition at 0.1 µM (GSK3B): -11.3%
- inhibition at 0.1 µM (IRAK3): 92.5%
- Inhibition vs DMSO (LOK; Lys1): 56.8%
- Inhibition vs DMSO (LOK; Lys2): 82.8%
- inhibition at 0.1 µM (MAP2K3; [3]): -10.9%
- inhibition at 0.1 µM (MAP2K3; [1]): 3.4%
- inhibition at 0.1 µM (MAP2K3; [2]): 8.2%
- inhibition at 0.1 µM (MAP3K3): 13%
- inhibition at 0.1 µM (NEK4): -23.8%
- inhibition at 0.1 µM (PEK): 1.7%
- inhibition at 0.1 µM (RAF1): 0.349%
- Inhibition vs DMSO (SMG1; DTVTIHSVGGTITILPTKTKPK): -27.8%
- Inhibition vs DMSO (SMG1; SYPYLFKGLEDLHLDER): -27.3%
